± gives the expanded uncertainty stated by the source.
Conditions: Crystal; DTA

SMILES	Normal melting temperature [°C]
[F-].[Li+] [lithium fluoride]	844 ± 1
[Cl-].[Cs+] [cesium chloride]	645 ± 1

Source: the NIST ThermoML archive (doi:10.1016/j.jct.2019.07.003)
